How the values were obtained:
SK-MEL-28 = assay: Cytotoxicity against human SK-MEL-28 cells assessed as inhibition of cell growth incubated for 48 hrs by MTT assay; format: functional, cell-based; details: SK-MEL-28, 48 h
A549 = assay: Cytotoxicity against human A549 cells assessed as inhibition of cell growth incubated for 48 hrs by MTT assay; format: functional, cell-based; details: A549, 48 h
HepG2 = assay: Cytotoxicity against human HepG2 cells assessed as inhibition of cell growth incubated for 48 hrs by MTT assay; format: functional, cell-based; details: HepG2, 48 h
MCF7 = assay: Cytotoxicity against human MCF7 cells assessed as inhibition of cell growth incubated for 48 hrs by MTT assay; format: functional, cell-based; details: MCF7, 48 h
HCT-116 = assay: Cytotoxicity against human HCT-116 cells assessed as inhibition of cell growth incubated for 48 hrs by MTT assay; format: functional, cell-based; details: HCT-116, 48 h
[1] = Cytotoxicity against HEK293 cells assessed as inhibition of cell growth incubated for 48 hrs by MTT assay; format: toxicity, cell-based; details: human

Row | Compound | IC50 (SK-MEL-28) | IC50 (A549) | IC50 (HepG2) | IC50 (MCF7) | IC50 (HCT-116) | IC50 at 48 h [1]
1 | O=C(CN1C(=O)S/C(=C\c2coc3ccccc3c2=O)C1=O)c1ccc(Cl)c(Cl)c1 | > 10 µM | > 10 µM | > 10 µM | 9.1 µM | > 10 µM | 19.6 µM
2 | Cc1ccc2occ(/C=C3\SC(=O)N(CC(=O)c4ccc(F)cc4)C3=O)c(=O)c2c1 | > 10 µM | > 10 µM | > 10 µM | > 10 µM | > 10 µM | 15.2 µM
3 | Cc1ccc2occ(/C=C3\SC(=O)N(CC(=O)c4ccccc4)C3=O)c(=O)c2c1 | > 10 µM | > 10 µM | > 10 µM | > 10 µM | > 10 µM | 13.6 µM
4 | Cc1ccc(C(=O)CN2C(=O)S/C(=C\c3coc4ccc(C)cc4c3=O)C2=O)cc1 | > 10 µM | 8.2 µM | > 10 µM | > 10 µM | > 10 µM | 14.1 µM
5 | O=C(CN1C(=O)S/C(=C\c2coc3ccc(Br)cc3c2=O)C1=O)c1ccccc1 | > 10 µM | > 10 µM | > 10 µM | > 10 µM | > 10 µM | 13.2 µM
6 | O=C(CN1C(=O)S/C(=C\c2coc3cc(Br)ccc3c2=O)C1=O)c1ccccc1 | > 10 µM | 8.8 µM | > 10 µM | > 10 µM | > 10 µM | 21.1 µM
7 | Cc1ccc(C(=O)CN2C(=O)S/C(=C\c3coc4ccccc4c3=O)C2=O)cc1 | > 10 µM | 8.7 µM | > 10 µM | > 10 µM | > 10 µM | 28.2 µM
8 | COc1ccc(C(=O)CN2C(=O)S/C(=C\c3coc4ccccc4c3=O)C2=O)cc1 | > 10 µM | 8.8 µM | > 10 µM | > 10 µM | > 10 µM | 168 µM
9 | Cc1ccc2occ(/C=C3\SC(=O)N(CC(=O)c4ccc(Br)cc4)C3=O)c(=O)c2c1 | 9.1 µM | > 10 µM | > 10 µM | > 10 µM | > 10 µM | 16.5 µM
10 | Cc1ccc(C(=O)CN2C(=O)S/C(=C\c3coc4cc(Br)ccc4c3=O)C2=O)cc1 | > 10 µM | 6.5 µM | > 10 µM | 10.1 µM | > 10 µM | 15.1 µM
11 | O=C(CN1C(=O)S/C(=C\c2coc3ccccc3c2=O)C1=O)c1ccccc1 | > 10 µM | > 10 µM | > 10 µM | > 10 µM | > 10 µM | 17.5 µM
12 | N#Cc1ccc(C(=O)CN2C(=O)S/C(=C\c3coc4ccccc4c3=O)C2=O)cc1 | > 10 µM | 8.8 µM | > 10 µM | > 10 µM | > 10 µM | 27.8 µM
13 | O=C(CN1C(=O)S/C(=C\c2coc3ccccc3c2=O)C1=O)c1ccc(F)cc1 | > 10 µM | 8.2 µM | > 10 µM | > 10 µM | > 10 µM | 15.5 µM
14 | O=C(CN1C(=O)S/C(=C\c2coc3cc(F)ccc3c2=O)C1=O)c1ccc(Cl)cc1 | > 10 µM | > 10 µM | > 10 µM | > 10 µM | > 10 µM | 13.4 µM
15 | O=C(CN1C(=O)S/C(=C\c2coc3cc(Br)ccc3c2=O)C1=O)c1ccc(Br)cc1 | > 10 µM | > 10 µM | > 10 µM | > 10 µM | > 10 µM | 23.6 µM
16 | O=C(CN1C(=O)S/C(=C\c2coc3cc(Br)ccc3c2=O)C1=O)c1ccc(Cl)cc1 | > 10 µM | 8.4 µM | > 10 µM | > 10 µM | > 10 µM | 18.1 µM
17 | Cc1ccc(C(=O)CN2C(=O)S/C(=C\c3coc4cc(F)ccc4c3=O)C2=O)cc1 | > 10 µM | > 10 µM | > 10 µM | > 10 µM | > 10 µM | 16.6 µM

From ChEMBL document CHEMBL5576084, “Development of chromone-thiazolidine-2,4-dione Knoevenagel conjugates as apoptosis inducing agents” (Bioorg Med Chem Lett, 2024)
